In PubChem BioAssay (NCI):
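GI50 marks 50% less growth. Definition used: TGI = concentration required for complete inhibition of growth.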

Assays:
Experiment in all cases: growth of human tumour cells (NCI), 384-well format
SK-OV-3 ovarian = test system: SK-OV-3 ovarian
SF-268 CNS = test system: SF-268 CNS
MOLT-4 leukemia = test system: MOLT-4 leukemia
NCI/ADR-RES ovarian = test system: NCI/ADR-RES ovarian
MALME-3M melanoma = test system: MALME-3M melanoma
MDA-MB-468 breast = test system: MDA-MB-468 breast
PC-3 prostate = test system: PC-3 prostate
CAKI-1 renal = test system: CAKI-1 renal
UO-31 renal = test system: UO-31 renal
MDA-MB-435 melanoma = test system: MDA-MB-435 melanoma
HCT-116 colon = test system: HCT-116 colon
TK-10 renal = test system: TK-10 renal
OVCAR-8 ovarian = test system: OVCAR-8 ovarian
SK-MEL-28 melanoma = test system: SK-MEL-28 melanoma
HCC-2998 colon = test system: HCC-2998 colon
SF-295 CNS = test system: SF-295 CNS
IGROV1 ovarian = test system: IGROV1 ovarian
LOX IMVI melanoma = test system: LOX IMVI melanoma
MCF7 breast = test system: MCF7 breast
UACC-62 melanoma = test system: UACC-62 melanoma
SNB-75 CNS = test system: SNB-75 CNS
T-47D breast = test system: T-47D breast
A498 renal = test system: A498 renal
NCI-H460 NSCLC = test system: NCI-H460 NSCLC
HT29 colon = test system: HT29 colon
MDA-MB-231 breast = test system: MDA-MB-231 breast
NCI-H23 lung = test system: NCI-H23 lung
OVCAR-4 ovarian = test system: OVCAR-4 ovarian
RPMI-8226 leukemia = test system: RPMI-8226 leukemia
SK-MEL-5 melanoma = test system: SK-MEL-5 melanoma
HOP-62 NSCLC = test system: HOP-62 NSCLC
DU-145 prostate = test system: DU-145 prostate
RXF 393 renal = test system: RXF 393 renal
HS 578T breast = test system: HS 578T breast
HL-60(TB) leukemia = test system: HL-60(TB) leukemia
786-0 renal = test system: 786-0 renal
COLO 205 colon = test system: COLO 205 colon
NCI-H522 lung = test system: NCI-H522 lung
BT-549 breast = test system: BT-549 breast
SNB-19 CNS = test system: SNB-19 CNS
NCI-H322M lung = test system: NCI-H322M lung
HCT-15 colon = test system: HCT-15 colon
SR leukemia = test system: SR leukemia
OVCAR-3 ovarian = test system: OVCAR-3 ovarian
ACHN renal = test system: ACHN renal
UACC-257 melanoma = test system: UACC-257 melanoma
M14 melanoma = test system: M14 melanoma
SF-539 CNS = test system: SF-539 CNS
HOP-92 NSCLC = test system: HOP-92 NSCLC
CCRF-CEM leukemia = test system: CCRF-CEM leukemia
SW-620 colon = test system: SW-620 colon
U251 glioblastoma = test system: U251 glioblastoma
EKVX NSCLC = test system: EKVX NSCLC
SN12C renal = test system: SN12C renal
NCI-H226 lung = test system: NCI-H226 lung
K-562 leukemia = test system: K-562 leukemia
KM12 colon = test system: KM12 colon
A549 NSCLC = test system: A549 NSCLC

COc1cc2c(Nc3ccc(Cl)c(Cl)c3F)ncnc2cc1OCC1C[C@@H]2CN(C)C[C@@H]2C1 (stereo partly specified)
GI50 (SK-OV-3 ovarian): 189 nM | TGI (SK-OV-3 ovarian): 1430 nM | GI50 (SF-268 CNS): 1100 nM | TGI (SF-268 CNS): 2300 nM | GI50 (MOLT-4 leukemia): 1100 nM | TGI (MOLT-4 leukemia): 2300 nM | GI50 (NCI/ADR-RES ovarian): 1400 nM | TGI (NCI/ADR-RES ovarian): 2800 nM | GI50 (MALME-3M melanoma): 1160 nM | TGI (MALME-3M melanoma): 2380 nM | GI50 (MDA-MB-468 breast): 30.7 nM | TGI (MDA-MB-468 breast): 162 nM | GI50 (PC-3 prostate): 1120 nM | TGI (PC-3 prostate): 2500 nM | GI50 (CAKI-1 renal): 123 nM | TGI (CAKI-1 renal): 1600 nM | GI50 (UO-31 renal): 252 nM | TGI (UO-31 renal): 1650 nM | GI50 (MDA-MB-435 melanoma): 1690 nM | TGI (MDA-MB-435 melanoma): 3070 nM | GI50 (HCT-116 colon): 1390 nM | TGI (HCT-116 colon): 2720 nM | GI50 (TK-10 renal): 156 nM | TGI (TK-10 renal): 1230 nM | GI50 (OVCAR-8 ovarian): 1110 nM | TGI (OVCAR-8 ovarian): 2320 nM | GI50 (SK-MEL-28 melanoma): 1450 nM | TGI (SK-MEL-28 melanoma): 2770 nM | GI50 (HCC-2998 colon): 1480 nM | TGI (HCC-2998 colon): 2810 nM | GI50 (SF-295 CNS): 1680 nM | TGI (SF-295 CNS): 3060 nM | GI50 (IGROV1 ovarian): 33.2 nM | TGI (IGROV1 ovarian): 199 nM | GI50 (LOX IMVI melanoma): 1150 nM | TGI (LOX IMVI melanoma): 2380 nM | GI50 (MCF7 breast): 1090 nM | TGI (MCF7 breast): 2300 nM | GI50 (UACC-62 melanoma): 1120 nM | TGI (UACC-62 melanoma): 2330 nM | GI50 (SNB-75 CNS): 1310 nM | TGI (SNB-75 CNS): 2590 nM | GI50 (T-47D breast): 1020 nM | TGI (T-47D breast): 2230 nM | GI50 (A498 renal): 940 nM | TGI (A498 renal): 2150 nM | GI50 (NCI-H460 NSCLC): 1330 nM | TGI (NCI-H460 NSCLC): 2620 nM | GI50 (HT29 colon): 598 nM | TGI (HT29 colon): 1920 nM | GI50 (MDA-MB-231 breast): 1180 nM | TGI (MDA-MB-231 breast): 2470 nM | GI50 (NCI-H23 lung): 1020 nM | TGI (NCI-H23 lung): 2230 nM | GI50 (OVCAR-4 ovarian): 1360 nM | TGI (OVCAR-4 ovarian): 3150 nM | GI50 (RPMI-8226 leukemia): 1390 nM | TGI (RPMI-8226 leukemia): 2680 nM | GI50 (SK-MEL-5 melanoma): 1220 nM | TGI (SK-MEL-5 melanoma): 2460 nM | GI50 (HOP-62 NSCLC): 1310 nM | TGI (HOP-62 NSCLC): 2590 nM | GI50 (DU-145 prostate): 557 nM | TGI (DU-145 prostate): 2180 nM | GI50 (RXF 393 renal): 512 nM | TGI (RXF 393 renal): 1860 nM | GI50 (HS 578T breast): 1080 nM | TGI (HS 578T breast): 2280 nM | GI50 (HL-60(TB) leukemia): 1670 nM | TGI (HL-60(TB) leukemia): 3030 nM | GI50 ([…]-0 renal): 710 nM | TGI (786-0 renal): 2030 nM | GI50 (COLO 205 colon): 1810 nM | TGI (COLO 205 colon): 3280 nM | GI50 (NCI-H522 lung): 80.1 nM | TGI (NCI-H522 lung): 1440 nM | GI50 (BT-549 breast): 1300 nM | TGI (BT-549 breast): 2580 nM | GI50 (SNB-19 CNS): 1410 nM | TGI (SNB-19 CNS): 2740 nM | GI50 (NCI-H322M lung): 31.7 nM | TGI (NCI-H322M lung): 366 nM | GI50 (HCT-15 colon): 890 nM | TGI (HCT-15 colon): 2130 nM | GI50 (SR leukemia): 415 nM | TGI (SR leukemia): 801 nM | GI50 (OVCAR-3 ovarian): 93.8 nM | TGI (OVCAR-3 ovarian): 1520 nM | GI50 (ACHN renal): 69.1 nM | TGI (ACHN renal): 1280 nM | GI50 (UACC-257 melanoma): 208 nM | TGI (UACC-257 melanoma): 409 nM | GI50 (M14 melanoma): 1650 nM | TGI (M14 melanoma): 3020 nM | GI50 (SF-539 CNS): 1140 nM | TGI (SF-539 CNS): 2360 nM | GI50 (HOP-92 NSCLC): 1150 nM | TGI (HOP-92 NSCLC): 2370 nM | GI50 (CCRF-CEM leukemia): 1520 nM | TGI (CCRF-CEM leukemia): 2850 nM | GI50 (SW-620 colon): 1560 nM | TGI (SW-620 colon): 2900 nM | GI50 (U251 glioblastoma): 1600 nM | TGI (U251 glioblastoma): 2950 nM | GI50 (EKVX NSCLC): 47.2 nM | TGI (EKVX NSCLC): 1130 nM | GI50 (SN12C renal): 161 nM | TGI (SN12C renal): 1400 nM | GI50 (NCI-H226 lung): 1260 nM | TGI (NCI-H226 lung): 2700 nM | GI50 (K-562 leukemia): 51 nM | TGI (K-562 leukemia): 181 nM | GI50 (KM12 colon): 1630 nM | TGI (KM12 colon): 3010 nM | GI50 (A549 NSCLC): 974 nM | TGI (A549 NSCLC): 2160 nM
